Experimental data from patent US6838476B1, “Imidazoles with anti-inflammatory activity” (J. Uriach & Cia, SA, priority 1998, dated 2005).
Structures can show the parent of a compound that is named as a salt.

Tests used:
cyclooxygenase-1 (COX-1) = biological target: T1, cyclooxygenase-1 (COX-1) (Homo sapiens, UniProt P23219); experiment: Inhibition of cyclooxygenase-1 (COX-1) activity in human blood (thromboxane B2 levels after ionophore A23187); assay type: cell-based; settings: for inhibition at 10 µM: read-out: % inhibition COX-1 (10 μM), 10 μM test compound
T1 construct: from tissue; host or cells: heparinized human whole blood
T1 sequence (P23219 24-599): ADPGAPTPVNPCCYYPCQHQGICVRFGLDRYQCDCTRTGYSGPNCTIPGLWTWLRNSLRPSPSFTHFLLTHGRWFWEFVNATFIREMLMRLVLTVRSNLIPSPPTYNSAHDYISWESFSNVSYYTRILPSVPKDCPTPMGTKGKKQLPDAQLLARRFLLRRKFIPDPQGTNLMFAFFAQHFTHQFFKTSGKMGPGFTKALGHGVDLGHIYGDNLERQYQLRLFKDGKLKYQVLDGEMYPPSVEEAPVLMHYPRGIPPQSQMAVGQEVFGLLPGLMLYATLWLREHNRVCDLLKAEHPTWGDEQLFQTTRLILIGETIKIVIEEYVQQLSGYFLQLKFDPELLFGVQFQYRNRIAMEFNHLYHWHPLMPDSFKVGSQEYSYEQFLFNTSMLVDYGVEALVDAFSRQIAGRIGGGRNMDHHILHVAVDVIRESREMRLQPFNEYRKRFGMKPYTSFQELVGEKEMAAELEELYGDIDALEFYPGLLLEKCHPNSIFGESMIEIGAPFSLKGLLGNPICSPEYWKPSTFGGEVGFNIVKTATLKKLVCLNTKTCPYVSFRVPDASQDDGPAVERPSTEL
Description: (§1) Inhibition of cyclooxgenase-1 (COX-1) and cyclooxygenase-2 (COX-2) Activity in Human Blood
Heparinized human blood from healthy volunteers who had not taken non-steroidal anti-inflammatory drugs (NSAIDs) for a week, and neither alcohol nor xanthines 24 h before blood collection, is used. Blood is divided into two groups; one will be used to determine COX-1 activity and the other one for COX-2. The procedure to follow will be different in each case.
For COX-1, 12-mL tubes are used. 5 μL of the test compound (in DMSO solution; in duplicate) are placed in each tube. Aditionally two tubes for blanks and two tubes for controls containing 5 μL of DMSO are used. Next, 1 mL of blood is added to each tube and they are stirred. The tubes are placed in a thermostatized bath at 37° C. for 5 h. Then, 5 μL of 5 mM ionophore A23187 is added to each tube, except to the blanks, and tubes are incubated for 30 min more at 37° C. After this time, the tubes are placed in ice and 100 μL of a 100 mM EGTA solution is added to stop the reaction. 2.5 mL of methanol is added to each tube to reach a final concentration of 70%. The tubes are stirred and frozen at −70° C. till their use. The COX-1 activity is determined by measuring thromboxane B2 levels in the samples. Blood is defrozen and centrifuged at 2000 g for 10 min at 4° C. 1 mL of supematant is evaporated under nitrogen to dryness. The solid residue thus obtained is resuspended in 1 mL of saline and the thromboxane B2 levels in these samples are determined using a kit (Kit Thromboxane B2, Biotrak EIA system RPN220 Amershan), according to the manufacturer's instructions.

cyclooxygenase-2 (COX-2) = biological target: T2, cyclooxygenase-2 (COX-2) (Homo sapiens, UniProt P35354); experiment: Inhibition of cyclooxygenase-2 (COX-2) activity in human blood (prostaglandin E2 levels after LPS, aspirin added); assay type: cell-based; settings: for inhibition at 10 µM: read-out: % inhibition COX-2 (10 μM), 10 μM test compound; for inhibition at 1 µM: read-out: % inhibition COX-2 (1 μM), 1 μM test compound
T2 construct: 5 μL of LPS is also added (in order to induce COX-2 activy); from tissue; host or cells: heparinized human whole blood, LPS-stimulated, with aspirin added
T2 sequence (P35354 18-604): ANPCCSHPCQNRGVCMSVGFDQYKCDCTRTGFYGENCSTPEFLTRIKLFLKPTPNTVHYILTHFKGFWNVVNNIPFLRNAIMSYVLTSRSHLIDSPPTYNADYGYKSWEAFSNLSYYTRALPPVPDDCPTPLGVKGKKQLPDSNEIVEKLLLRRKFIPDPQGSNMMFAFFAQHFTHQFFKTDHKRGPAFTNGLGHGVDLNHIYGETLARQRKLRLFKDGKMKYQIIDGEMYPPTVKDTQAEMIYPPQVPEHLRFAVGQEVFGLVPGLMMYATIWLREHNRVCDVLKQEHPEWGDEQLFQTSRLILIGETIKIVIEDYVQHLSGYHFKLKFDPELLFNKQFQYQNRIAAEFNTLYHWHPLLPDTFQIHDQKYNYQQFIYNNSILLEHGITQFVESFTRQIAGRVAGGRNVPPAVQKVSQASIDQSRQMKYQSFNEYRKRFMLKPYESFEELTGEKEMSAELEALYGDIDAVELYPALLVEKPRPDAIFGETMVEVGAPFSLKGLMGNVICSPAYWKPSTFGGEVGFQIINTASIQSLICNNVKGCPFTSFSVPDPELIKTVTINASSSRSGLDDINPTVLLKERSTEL
Description: as §1
Blood is divided into two groups; one will be used to determine COX-1 activity and the other one for COX-2. The procedure to follow will be different in each case.
For COX-2, 3-mL tubes are prepared in duplicate containing 5 μL of the test compound (solution in DMSO) and 5 μL of vehicle in the case of blanks and controls. To each tube, 5 μL of a 2 mg/mL solution of aspirin in DMSO is also added (in order to inhibit COX-1 activity), and to all tubes except the blanks 5 μL of LPS is also added (in order to induce COX-2 activy). Finally, 1 mL of heparinized blood is added to each tube, and tubes are then stirred and placed in a thermostatized bath at 37° C. for 24 h. Then, tubes are centrifuged at 2000 g for 10 min at 4° C., the resulting plasma is collected and is frozen at −70° C. until use. COX-2 activity is determined by measuring prostaglandin E2 levels in the samples. The plasma stored at −70° C. is defrozen and prostaglandin E2 levels in these samples are determined using a kit (Kit Prostaglandin E2, Biotrak EIA system RPN222 Amershan), according to the manufacturer's instructions.

SMILES | melting point [°C] | other results
Cc1ccc(-c2c(Cl)ncn2-c2ccc(S(C)(=O)=O)cc2)cc1 [4(1), 4-Chloro-5-(4-methylphenyl)-1-(4-methylsulfonylphenyl)imidazole] |  | inhibition at 10 µM (cyclooxygenase-1 (COX-1)): 34%; inhibition at 10 µM (cyclooxygenase-2 (COX-2)): 100%
CS(=O)(=O)c1ccc(-n2cnc(Cl)c2-c2ccccc2)cc1 [4(3), 4-Chloro-1-(4-methylsulfonylphenyl)-5-phenylimidazole] |  | inhibition at 10 µM (cyclooxygenase-1 (COX-1)): 47.9%; inhibition at 1 µM (cyclooxygenase-2 (COX-2)): 82.6%; inhibition at 10 µM (cyclooxygenase-2 (COX-2)): 96%
Cc1ccc(-c2c(Cl)ncn2-c2ccc(S(C)(=O)=O)cc2)cc1F [4(8), 4-Chloro-5-(3-fluoro-4-methylphenyl)-1-(4-methylsulfonylphenyl)-imidazole] |  | inhibition at 10 µM (cyclooxygenase-1 (COX-1)): 47.5%; inhibition at 1 µM (cyclooxygenase-2 (COX-2)): 75.1%; inhibition at 10 µM (cyclooxygenase-2 (COX-2)): 100%
Cc1ccc(-c2c(Cl)ncn2-c2ccc(S(C)(=O)=O)cc2)cn1 [4(11), 4-Chloro-5-(6-methyl-3-pyridyl)-1-(4-methylsulfonylphenyl)imidazole] |  | inhibition at 10 µM (cyclooxygenase-1 (COX-1)): 39.7%; inhibition at 1 µM (cyclooxygenase-2 (COX-2)): 58.4%; inhibition at 10 µM (cyclooxygenase-2 (COX-2)): 100%
CS(=O)(=O)c1ccc(-n2cnc(Cl)c2-c2ccc(Cl)nc2)cc1 [4(16), 4-Chloro-5-(6-chloro-3-pyridyl)-1-(4-methylsulfonylphenyl)imidazole] |  | inhibition at 10 µM (cyclooxygenase-1 (COX-1)): 42.5%; inhibition at 10 µM (cyclooxygenase-2 (COX-2)): 100%
CS(=O)(=O)c1ccc(-n2cnc(Cl)c2-c2ccc(Cl)nc2Cl)cc1 [4(17)] |  | % inhibition COX-1 (10 μM) (cyclooxygenase-1 (COX-1); 10 μM test compound): 22.7%; % inhibition COX-2 (1 μM) (cyclooxygenase-2 (COX-2); 1 μM test compound): 65%; % inhibition COX-2 (10 μM) (cyclooxygenase-2 (COX-2); 10 μM test compound): 86.3%
CCOc1ccc(-c2c(Cl)ncn2-c2ccc(S(C)(=O)=O)cc2)cc1 [4(22), 4-Chloro-5-(4-ethoxyphenyl)-1-(4-methylsulfonylphenyl)imidazole] |  | inhibition at 10 µM (cyclooxygenase-1 (COX-1)): 72.1%; inhibition at 1 µM (cyclooxygenase-2 (COX-2)): 100%; inhibition at 10 µM (cyclooxygenase-2 (COX-2)): 100%
CS(=O)(=O)c1ccc(-n2cncc2-c2ccc(F)cc2F)cc1 [Example 1(2), 5-(2,4-Difluorophenyl)-1-(4-methylsulfonylphenyl)imidazole] | 119 | 
COc1ccc(-c2cncn2-c2ccc(S(C)(=O)=O)cc2)cc1 [Example 1(5), 5-(4-Methoxyphenyl)-1-(4-methylsulfonylphenyl)imidazole] | 185 to 187 | 
Cc1ccc(-c2cncn2-c2ccc(S(C)(=O)=O)cc2)cc1F [Example 1(8), 5-(3-Fluoro-4-methylphenyl)-1-(4-methylsulfonylphenyl)imidazole] | 147 | 
CS(=O)(=O)c1ccc(-n2cncc2-c2ccc(OC(F)(F)F)cc2)cc1 [Example 1(10), 1-(4-Methylsulfonylphenyl)-5-(4-trifluoromethoxyphenyl)imidazole] | 141 to 142 | 
COc1cc(-c2cncn2-c2ccc(S(C)(=O)=O)cc2)ccc1C [Example 1(14), 5-(3-Methoxy-4-methylphenyl)-1(4-methylsulfonylphenyl)imidazole] | 174 to 175 | 
COc1ccc(-c2cncn2-c2ccc(S(C)(=O)=O)cc2)c(Cl)n1 [Example 1(18), 5-(2-Chloro-6-methoxy-3-pyridyl)-1-(4-methylsulfonylphenyl)imidazole] | 192 to 198 | 
CS(=O)(=O)c1ccc(-n2cncc2-c2cnc(Cl)c(Cl)c2)cc1 [Example 1(19), 5-(5,6-Dichloro-3-pyridyl)-1-(4-methylsulfonylphenyl)imidazole] | 192 to 198 | 
CCCOc1ccc(-c2cncn2-c2ccc(S(C)(=O)=O)cc2)cc1 [Example 1(20), 1-(4-Methylsulfonylphenyl)-5-(4-propoxyphenyl)imidazole] | 167 to 169 | 
CCOc1cc(OCC)cc(-c2cncn2-c2ccc(S(C)(=O)=O)cc2)c1 [Example 1(21), 5-(3,5-Diethoxyphenyl)-1-(4-methylsulfonylphenyl)imidazole] | 100 to 101 | 
CSc1ccc(-c2cncn2-c2ccc(S(C)(=O)=O)cc2)cc1 [Example 1(24), 5-(4-Methylsulfanylphenyl)-1-(4-methylsulfonylphenyl)imidazole] | 153 to 155 | 
NS(=O)(=O)c1ccc(-n2cncc2-c2ccc(F)cc2)cc1 [Example 14, 4-[5-(4-Fluorophenyl)imidazol-1-yl]benzenesulfonamide] | 196 to 197 | 
CC(=O)Nc1ccc(-c2[nH]c(-c3ccc(S(C)(=O)=O)cc3)nc2Cl)cc1 [Example 18, 5-(4-Acetylaminophenyl)-4-chloro-(4-methylsulfonylphenyl)imidazole] | 238 to 241 | 

The next lines start with results.

melting point [°C] | SMILES | other results
181 to 182 | Cc1ccc(-c2c(Cl)ncn2-c2ccc(S(C)(=O)=O)cc2)cc1Cl (as salt: HCl) [4(13), 4-Chloro-5-(3-chloro-4-methylphenyl)-1-(4-methylsulfonylphenyl)-imidazole] | 
178 | COCc1cccc(-c2c(Cl)ncn2-c2ccc(S(C)(=O)=O)cc2)c1 (as salt: HCl) [4(14), 4-Chloro-5-(3-methoxymethylphenyl)-1-(4-methylsulfonylphenyl)-imidazole] | 
223 | CS(=O)(=O)c1ccc(-n2cnc(Cl)c2-c2ccc(Cl)nc2)cc1 (as salt: HCl) [4(16), 4-Chloro-5-(6-chloro-3-pyridyl)-1-(4-methylsulfonylphenyl)imidazole] | 
156 to 157 | CS(=O)(=O)c1ccc(-n2cnc(Cl)c2-c2ccc(Cl)c(Cl)c2)cc1 [4(4), 4-Chloro-5-(3,4-dichlorophenyl)-1(4-methylsulfonylphenyl)imidazole] | 
223 to 230 | CS(=O)(=O)c1ccc(-n2cnc(Cl)c2-c2cnc(Cl)c(Cl)c2)cc1 [4(19), 4-Chloro-5-(5,6-dichloro-3-pyridyl)-1-(4-methylsulfonylphenyl)imidazole] | 
251 | NS(=O)(=O)c1ccc(-n2cnc(Cl)c2-c2ccc(Cl)c(Cl)c2)cc1 [13(2), 4-[4-Chloro-5-(3,4-dichlorophenyl)imidazol-1-yl]benzenesulfonamide] | 
156 | Cc1ccc(-c2cncn2-c2ccc(S(C)(=O)=O)cc2)cc1 [Example 1(1), 5-(4-Methylphenyl)-1-(4-methylsulfonylphenyl)imidazole] | 
164 | CS(=O)(=O)c1ccc(-n2cncc2-c2ccccc2)cc1 [Example 1(3), 1-(4-Methylsulfonylphenyl)-5-phenylimidazole] | 
188 to 189 | CS(=O)(=O)c1ccc(-n2cncc2-c2ccccc2F)cc1 [Example 1(9), 5-(2-Fluorophenyl)-1(4-methylsulfonylphenyl)imidazole] | 
192 to 193 | CS(=O)(=O)c1ccc(-n2cncc2-c2ccc(Cl)cc2)cc1 [Example 1(15), 5-(4-Chlorophenyl)-1-(4-methylsulfonylphenyl)imidazole] | 
191 to 192 | CS(=O)(=O)c1ccc(-n2cncc2-c2ccc(Cl)nc2)cc1 [Example 1(16), 5-(6-Chloro-3-pyridyl)-1-(4-methylsulfonylphenyl)imidazole] | 
185 to 193 | CS(=O)(=O)c1ccc(-c2cnc(Cl)n2-c2ccccc2)cc1 [Example 11, 2-Chloro-5-(4-methylsulfonylphenyl)-1-phenylimidazole] | 
